Molecules are shown by their SMILES.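 Cultured in 96-well plates, cells were exposed to test compound for 48 hours across five concentrations. The concentration for 50% growth inhibition is given as GI50. The concentration for full growth arrest is given as TGI.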

Test systems include SNB-75 CNS; RPMI-8226 leukemia; LOX IMVI melanoma; HOP-62 NSCLC; CCRF-CEM leukemia; MDA-MB-231 breast; COLO 205 colon; HCT-116 colon; SF-268 CNS; UACC-62 melanoma.
What all share (assay): NCI-60 cell line screen, 48 h

For `O=C(N/N=c1/ccoc2cccnc12)N1CCN(c2ncccn2)CC1`, the GI50 in the assay with SNB-75 CNS was 1.63 µM; in the assay on RPMI-8226 leukemia, under 0.01 µM; with LOX IMVI melanoma, under 0.0158 µM; in the assay on HOP-62 NSCLC, 0.0436 µM; in the assay on CCRF-CEM leukemia, under 0.01 µM; with MDA-MB-231 breast, 0.278 µM. Also, the GI50 in the assay with COLO 205 colon is under 0.01 µM; with HCT-116 colon, under 0.01 µM; in the assay with SF-268 CNS, 0.795 µM; in the assay on UACC-62 melanoma it was 0.457 µM. The TGI is 9.33 µM in the assay with SNB-75 CNS; 2.04 µM in the assay with RPMI-8226 leukemia; 5.12 µM in the assay on LOX IMVI melanoma; 7.42 µM in the assay on HOP-62 NSCLC; over 54.4 µM with CCRF-CEM leukemia; 7.41 µM in the assay with MDA-MB-231 breast. The TGI was found to be 7.57 µM in the assay on COLO 205 colon, 2.25 µM in the assay with HCT-116 colon, 15.1 µM in the assay on SF-268 CNS and 5.12 µM in the assay on UACC-62 melanoma.
Turning to `O=C(NCC(=O)N1CC[C@H](NC2CCC(O)(c3ccc(-c4ncccn4)cn3)CC2)C1)c1cccc(C(F)(F)F)c1` (some centres undefined), the GI50 was 20.2 µM in the assay with SNB-75 CNS; 31 µM with RPMI-8226 leukemia; 32.3 µM in the assay with LOX IMVI melanoma; 95.1 µM in the assay on HOP-62 NSCLC; 88.6 µM in the assay with CCRF-CEM leukemia; 49.5 µM in the assay with MDA-MB-231 breast. For the same compound, the GI50 in the assay on COLO 205 colon was 30.2 µM; in the assay on HCT-116 colon, 36.4 µM; with SF-268 CNS, over 100 µM; in the assay on UACC-62 melanoma, over 100 µM. The TGI with SNB-75 CNS, in the assay with RPMI-8226 leukemia, in the assay with LOX IMVI melanoma, with HOP-62 NSCLC, with CCRF-CEM leukemia and with MDA-MB-231 breast was over 100 µM each time. Besides, the TGI in the assay with COLO 205 colon, in the assay on HCT-116 colon, in the assay on SF-268 CNS and with UACC-62 melanoma was over 100 µM throughout.
For `O=C(Nc1cccc([N+](=O)[O-])c1)c1ccc2ccccc2c1O`, the GI50 is 17 µM in the assay on SNB-75 CNS; 1.28 µM with RPMI-8226 leukemia; 9.94 µM with LOX IMVI melanoma; 10.8 µM in the assay with HOP-62 NSCLC; 2.35 µM in the assay with CCRF-CEM leukemia; 22.2 µM in the assay with MDA-MB-231 breast. The GI50 was 15.4 µM in the assay with COLO 205 colon, 5.27 µM in the assay with HCT-116 colon, 7.72 µM with SF-268 CNS and 4.22 µM with UACC-62 melanoma. The TGI is over 100 µM in the assay on SNB-75 CNS; 5.99 µM in the assay on RPMI-8226 leukemia; over 100 µM in the assay with LOX IMVI melanoma; over 100 µM with HOP-62 NSCLC; over 35.1 µM with CCRF-CEM leukemia; over 81.9 µM in the assay with MDA-MB-231 breast. Moreover, the TGI in the assay on COLO 205 colon was over 57.5 µM; in the assay with HCT-116 colon it was over 100 µM; in the assay with SF-268 CNS it was over 100 µM; with UACC-62 melanoma, over 100 µM.
`N#CCC12CC=CCC1=C(O)C(=O)c1ccc(O)cc12` (centres undefined): the TGI in the assay on SNB-75 CNS, in the assay with RPMI-8226 leukemia, in the assay with LOX IMVI melanoma, in the assay with HOP-62 NSCLC, with CCRF-CEM leukemia and in the assay with MDA-MB-231 breast was over 100 µM each time. The TGI with COLO 205 colon, in the assay with HCT-116 colon, in the assay on SF-268 CNS and with UACC-62 melanoma was over 100 µM in each case.
Turning to `CC(C)(C)c1cn2cccc(C(=O)N3CCN(CC(=O)Nc4ccc(Cl)cc4C(=O)c4ccccc4Cl)CC3)c2n1`, the GI50 was 12.8 µM in the assay on SNB-75 CNS; 2.67 µM with RPMI-8226 leukemia; 11 µM with LOX IMVI melanoma; 15.4 µM in the assay with HOP-62 NSCLC; 3.39 µM with CCRF-CEM leukemia; 13.1 µM in the assay on MDA-MB-231 breast. Also, the GI50 with COLO 205 colon is 6.49 µM; in the assay with HCT-116 colon, 10.3 µM; with SF-268 CNS, 13 µM; in the assay with UACC-62 melanoma, 10.7 µM. In addition, the TGI worked out at 90.2 µM with SNB-75 CNS; 7.26 µM in the assay with RPMI-8226 leukemia; 23.9 µM in the assay with LOX IMVI melanoma; 32.3 µM with HOP-62 NSCLC; 13.7 µM in the assay on CCRF-CEM leukemia; 34.5 µM with MDA-MB-231 breast. For the same compound, the TGI in the assay with COLO 205 colon turned out to be 43.6 µM; in the assay with HCT-116 colon, 25.7 µM; in the assay on SF-268 CNS it was 43.6 µM; in the assay on UACC-62 melanoma it was 26 µM.
`Cn1ccnc1C(=O)/C=C/c1ccc(C(=O)Nc2ccccc2O)cc1`: the GI50 in the assay with SNB-75 CNS is 0.918 µM; in the assay with RPMI-8226 leukemia it was 0.62 µM; in the assay on LOX IMVI melanoma it was 1.38 µM; with HOP-62 NSCLC it was 4.6 µM; in the assay on CCRF-CEM leukemia it was 1.13 µM; in the assay on MDA-MB-231 breast, 3.26 µM. In addition, the GI50 in the assay on COLO 205 colon is 2.51 µM; in the assay on HCT-116 colon it was 0.866 µM; in the assay on SF-268 CNS it was 2.39 µM; in the assay on UACC-62 melanoma, 1.93 µM. Moreover, the TGI in the assay on SNB-75 CNS is 8.58 µM; in the assay on RPMI-8226 leukemia it was 3.8 µM; with LOX IMVI melanoma, 3.12 µM; in the assay on HOP-62 NSCLC, 15.1 µM; with CCRF-CEM leukemia, 8.25 µM; in the assay on MDA-MB-231 breast, 12.3 µM. Also, the TGI with COLO 205 colon came out at 5.15 µM; in the assay on HCT-116 colon, 2.64 µM; in the assay on SF-268 CNS, 7.2 µM; with UACC-62 melanoma, 5.01 µM.
On to `CC(=O)Nc1ccc2c(c1)C(=O)c1cccc(F)c1-2`, for which the TGI in the assay with SNB-75 CNS, in the assay on RPMI-8226 leukemia, with LOX IMVI melanoma, with HOP-62 NSCLC, with CCRF-CEM leukemia and in the assay with MDA-MB-231 breast was over 100 µM in each case. The TGI was over 100 µM in the assay on COLO 205 colon, over 81.7 µM in the assay with HCT-116 colon, over 100 µM in the assay on SF-268 CNS and over 100 µM in the assay on UACC-62 melanoma.
As to `O[C@@H]1CCCN1Cc1cc2cc3c(cc2c2cc(OCc4ccccc4)ccc12)OCO3`, the GI50 was 5.92 µM in the assay on SNB-75 CNS; 1.77 µM in the assay on RPMI-8226 leukemia; 1.8 µM with LOX IMVI melanoma; 5.78 µM in the assay on HOP-62 NSCLC; 4.35 µM in the assay with CCRF-CEM leukemia; 2.18 µM with MDA-MB-231 breast. Moreover, the GI50 in the assay with COLO 205 colon is 1.7 µM; with HCT-116 colon, 2.1 µM; with SF-268 CNS it was 4.78 µM; in the assay on UACC-62 melanoma it was 1.97 µM. In addition, the TGI with SNB-75 CNS was 19.7 µM; in the assay on RPMI-8226 leukemia it was 4.63 µM; with LOX IMVI melanoma it was 3.44 µM; with HOP-62 NSCLC, 18.9 µM; in the assay with CCRF-CEM leukemia, 14.4 µM; in the assay with MDA-MB-231 breast, 5.59 µM. For the same compound, the TGI turned out to be 3.46 µM in the assay with COLO 205 colon, 5.16 µM in the assay on HCT-116 colon, 20.1 µM with SF-268 CNS and 3.68 µM in the assay on UACC-62 melanoma.
For the compound `CO/N=C(\COc1ccc2c(c1)oc(=O)c1cc(OC)ccc12)c1cccc(OC)c1`, the GI50 in the assay on SNB-75 CNS, in the assay on RPMI-8226 leukemia, in the assay on LOX IMVI melanoma, in the assay on HOP-62 NSCLC, in the assay on CCRF-CEM leukemia and in the assay on MDA-MB-231 breast was over 100 µM each time. For the same compound, the GI50 in the assay with COLO 205 colon, in the assay on HCT-116 colon, in the assay on SF-268 CNS and in the assay on UACC-62 melanoma was over 100 µM each time. Further, the TGI in the assay on SNB-75 CNS, in the assay with RPMI-8226 leukemia, with LOX IMVI melanoma, with HOP-62 NSCLC, in the assay with CCRF-CEM leukemia and in the assay on MDA-MB-231 breast was over 100 µM each time. Further, the TGI with COLO 205 colon, in the assay on HCT-116 colon, in the assay on SF-268 CNS and in the assay with UACC-62 melanoma was over 100 µM in each case.
`COc1ccc2c(c1)C(=O)/C(=C/c1ccc([N+](=O)[O-])s1)O2`: the GI50 was 0.627 µM in the assay on SNB-75 CNS; 0.26 µM in the assay on RPMI-8226 leukemia; 0.256 µM with LOX IMVI melanoma; 1.07 µM with HOP-62 NSCLC; 0.308 µM with CCRF-CEM leukemia; 0.203 µM with MDA-MB-231 breast. In addition, the GI50 in the assay with COLO 205 colon is 0.49 µM; in the assay with HCT-116 colon, 0.204 µM; with SF-268 CNS, 0.268 µM; with UACC-62 melanoma, 0.311 µM. For the same compound, the TGI in the assay with SNB-75 CNS amounted to 2.47 µM; in the assay with RPMI-8226 leukemia it was 0.843 µM; in the assay with LOX IMVI melanoma, 0.637 µM; in the assay on HOP-62 NSCLC it was 3.47 µM; in the assay on MDA-MB-231 breast, 0.474 µM; with COLO 205 colon, 1.68 µM. The TGI with HCT-116 colon came out at 0.401 µM; with SF-268 CNS, 0.66 µM; in the assay with UACC-62 melanoma, 1.16 µM.
As for `CO/N=C(\COc1ccc2c(c1)oc(=O)c1cc(OC)ccc12)c1ccc(F)cc1`, the GI50 with SNB-75 CNS is 13.4 µM; with RPMI-8226 leukemia, 32.8 µM; in the assay with LOX IMVI melanoma, 26 µM; with HOP-62 NSCLC it was 16.4 µM; in the assay on CCRF-CEM leukemia, 47.5 µM; with MDA-MB-231 breast, 15.8 µM. Further, the GI50 in the assay with COLO 205 colon was 59.6 µM; with HCT-116 colon, 14.9 µM; in the assay with SF-268 CNS, 29.9 µM; in the assay with UACC-62 melanoma, 21.5 µM. In addition, the TGI was 27.1 µM in the assay with SNB-75 CNS; over 100 µM in the assay on RPMI-8226 leukemia; 72.9 µM in the assay on LOX IMVI melanoma; 34.1 µM in the assay with HOP-62 NSCLC; over 100 µM in the assay with CCRF-CEM leukemia; 42.8 µM in the assay with MDA-MB-231 breast. Further, the TGI in the assay on COLO 205 colon was over 100 µM; in the assay with HCT-116 colon, 41.2 µM; in the assay on SF-268 CNS, over 100 µM; with UACC-62 melanoma it was 73.9 µM.
As for `Cn1c(=O)c2[nH]c(C3CC(=O)CC(c4nc5c([nH]4)c(=O)n(C)c(=O)n5C)N3)nc2n(C)c1=O` (centres undefined), the TGI in the assay with SNB-75 CNS, in the assay on RPMI-8226 leukemia, in the assay with LOX IMVI melanoma, in the assay on HOP-62 NSCLC, in the assay with CCRF-CEM leukemia and in the assay on MDA-MB-231 breast was over 100 µM throughout. Further, the TGI in the assay on COLO 205 colon, in the assay on HCT-116 colon, in the assay with SF-268 CNS and in the assay with UACC-62 melanoma was over 100 µM in each case.

For the origin of these results see PubChem BioAssay (NCI).
